{"source": "patent US6767738B1", "about": "“Method of isolating adult mammalian CNS-derived progenitor stem cells using density gradient centrifugation” (The Salk Institute for Biological Studies, priority 1999, dated 2004)", "key": {"[1]": {"tested_on": "c-fos mRNA (Trk receptor tyrosine kinase signaling)", "assay": "RT-PCR analysis of neurotrophin-dependent c-fos induction", "format": "cell-based, rat", "settings": "pretreatment with RA for 6 days", "experimental": "Cell Culture. For proliferating conditions, clonal stem cells (AP14) were cultured in Dulbecco's Modified Eagles Medium/Ham's F12 (DMEM/F12, 1:1) containing N2 supplement (Gibco BRL, Gaithersburg, Md.) and 20 ng/ml rhFGF-2 (provided by A. Baird, Prizm Pharmaceuticals Inc., La Jolla, Calif.). Culture dishes (Becton Dickinsin Labware, Lincoln Park, N.J.) were coated with polyomithine and mouse laminin as previously described by Ray, et al., Proliferation, differentiation and long-term culture of primary hippocampal neurons, Proc Natl Acad Sci USA 90:3602-3606 (1993). For differentiation experiments, cells were plated into polyornithine/laminin coated glass chamber slides (Nunc, Naperville, Ill.) at a density of 2.5—103 per cm2. The cells were incubated for 24 hrs in normal N2 medium containing 20 ng/ml FGF-2, and then the medium was replaced by N2 medium containing 0.5% […] (FBS) and 0.01% DMSO (control solvent) or […] all-trans retinoic acid (Sigma, St. Louis, Mo.). For further differentiation, the medium was replaced by N2 medium containing 0.5% FBS and one of the following: sterile water (control solvent), mouse 2.55 NGF (50 ng/ml, Boehringer Mannheim, Indianapolis, Ind.), rhBDNF (20 ng/ml, Alomone Labs, Jerusalem, Israel), rhNT-3 (40 ng/ml, Genentech, South San Francisco, Calif.). The medium was replaced every two days. For inhibition of the tyrosine kinase activity of the Trk receptors, K-252a (100 nM, Calbiochem, San Diego, Calif.) was added to the medium.\nReverse Transcription-PCR Analysis. Total RNA from stem cells was isolated using RNeasy Total RNA Kits (Qiagen, Chatsworth, Calif.) according to manufacturer's instructions. Fifty nanograms of total RNA was reverse transcribed using avian myeloblastosis virus reverse transcriptase (Promega, Madison, Wis.) with random hexamers ([…]) as primers in a […] reaction mixture. For PCR amplification, two sets of specific oligonucleotide pairs ([…]) were used: one directed to the transcript of interest, and one for a constitutively expressed transcript, either ribosomal protein L27 or L27a. Reactions were performed in a […] reaction mixture containing 10 mM Tris-Cl (pH 8.4), 50 mm KCl, 1.5 mM MgC12, […] each of the four dNTPs, 2 mCi of [a-32P]dCTP and 5 units of Taq polymerase (Promega) using a thermal cycler (Perkin-Elmer, Foster City, Calif.) with a regimen of 1 min at 94° C., 2 min at 60° C. (55° C. for trk receptors) and 2 min at 72° C. for 23 cycles Fifty microliters of each reaction was analyzed by electrophoresis on 8% polyacrylamide gels followed by autoradiography. […] Under these conditions, the L27 amplification product was directly proportional to the amount of input RNA, up to 50 ng total RNA. Oligonucleotide primers used are as follows: […]\nRA treatment also results in neurotrophin-dependent induction of c-fos. Transient and rapid induction of immediate early genes such as c-fos is a well-characterized response to extracellular stimuli in neural cells. c-fos is induced after neurotrophin treatment in cultured […] hippocampal or cortical cells and the signaling cascade following c-fos induction is considered to be integral to subsequent steps in differentiation. To determine whether upregulation of mRNAs for trk receptors and p75NGFR observed in the stem cell cultures results in the acquisition of functional Trk-dependent stimulation of c-fos, mRNA was examined by RT-PCR analysis after stimulating RA-treated cells with neurotrophins. […]"}, "[2]": {"tested_on": "optic nerve low-buoyancy cells", "assay": "Neuron generation from optic nerve low-buoyancy cells", "format": "cell-based, rat", "settings": "14 days high FGF-2, then 14 days differentiation; mean +/- s.e.m., n=5", "text": "Tissue dissection: Three areas were dissected from adult rat brains as follows. Rats (170-190 g Fisher 344 males or females, Harlan) were deeply anesthetized with a mixture of ketamine, xylazine, and acepromazine. Animals were decapitated and whole brains removed. First, ˜1.5 mm of each optic nerve were harvested rostral to, but not including, the optic chiasma. The brain was then bisected longitudinally and each hippocampal lobe separated from the overlaying cortical white matter using the natural separation line along the alveus hippocampus. The white matter of the fimbria and subiculum was removed as much as possible. Some white matter remained. Finally, a 1.5 mm wide cortical ribbon containing parietal and frontal segments was dissected longitudinally, proximal to the central fissure. The pial and callosal surfaces were trimmed from each cortical ribbon to remove a majority of the meninges and white matter. […]\nTo determine if there were progenitors in the optic nerve with a latent ability to generate neurons, optic nerve was harvested, dissociated and fractioned. […] On day 28, cultures were calculated for the presence of neurons (β Tubulin) and those neurons present were scored for BrdU-immunoreactivity. Although many glia rapidly differentiated in the primary culture, clusters of proliferative precursor-like calls were readily detected. […]"}}}
{"compound": "CC1=C(/C=C/C(C)=C/C=C/C(C)=C/C(=O)O)C(C)(C)CCC1", "note": "[RA, all-trans retinoic acid]", "values": [{"measurement": "baseline expression of c-fos mRNA", "setting": "[1]", "value": "increased"}]}
{"compound": "FGF-2: basic fibroblast growth factor, human recombinant, prepared in E. coli", "values": [{"measurement": "β Tubulin-positive neurons, of the total population", "setting": "[2]", "value": 0.8, "unit": "% +/− 0.3"}]}
